Measurements from patent publication US8039505B2, “Compounds for modulating T-cells” (University of Utah Research Foundation, priority 2007, dated 2011).
Where two headings read alike, the source gives them in different places.

Assay: Pharmacokinetics in male Swiss Albino mouse, intravenous and oral (LC-MS/MS of plasma)
Format: in vivo
Description: The pharmacokinetics of 1H-indole-3-carbaldehyde quinolin-8-ylhydrazone (Compound C3) was evaluated following intravenous (3 mg/kg) and oral (15 mg/kg) solution administration of 1H-indole-3-carbaldehyde quinolin-8-ylhydrazone in male Swiss Albino mouse. The effect of the Test Item, 1H-indole-3-carbaldehyde quinolin-8-ylhydrazone on complete blood count (CBC) was also evaluated. Pharmacokinetic phase consisted of two groups, Group 1 and Group 2. Animals in Group 1 were given intravenous bolus dose in a vehicle containing 5% N,N-dimethylacetamide, 5% CREMOPHOR™ EL and 90% Dextrose solution (5% w/v) and those in Group 2 were given oral solution dose in a vehicle, the composition of which was same as that of intravenous formulation. In addition, the effect of Test Item on complete blood count was evaluated following intravenous and oral dose administration along with its vehicle controls. A total of four groups were used each with 6 mice.
From the pharmacokinetic group, predose samples were collected from 3 animals in each group. Following dose administration terminal blood samples were collected at each of the following time points (in triplicate): 0.083 (only for intravenous), 0.25, 0.5, 1, 2, 4, 8, 12 and 24 hours. At each time point, approximately 500 μL of whole blood was withdrawn from the retro orbital sinus and collected in labeled tubes containing dipotassium EDTA as anticoagulant (20 μL of 200 mM K2 EDTA solution per mL of blood). Plasma was separated by centrifuging the whole blood at about 2500 g for 10 minutes at 4° C. within 1 h of sample collection. Separated plasma was stored below minus 50° C. until bioanalysis. A sensitive LC-MS/MS method was used for the quantitation of 1H-indole-3-carbaldehyde quinolin-8-ylhydrazone. The lower limit of quantitation was 1.04 ng/mL. For CBC evaluation, approximately 500 μL of blood was collected in labeled tubes containing dipotassium EDTA as anticoagulant (10 […]/mL of blood) after 48 h of dose administration from all animals.
A total of 57 mice were divided into an intravenous dose group of 30 mice (Group 1) and oral dose group of 27 mice (Group 2). Animals in Group 1 received intravenous bolus dose via tail vein at 3 mg/kg and animals in Group 2 received oral solution dose via gavage at 15 mg/kg. Three animals were administered the dose for each time point (intravenous: 10 time points; Oral: 9 time points). Terminal blood samples were collected from each mouse under light ether anesthesia and plasma was separated.
Animals in Group 1 were administered an intravenous bolus dose via the tail vein (dosing volume: 6 mL/kg). Animals in Group 2 received oral dose by gavage with an oral dosing needle (dosing volume: 10 mL/kg). Animals in the CBC evaluation group were treated same as above except the animals in control group received vehicle instead of formulation.
Pharmacokinetic group: Predose samples were collected from 3 animals in each group. Following dose administration terminal blood samples were collected at each of the following time points (in triplicate): 0.083 (only for intravenous), 0.25, 0.5, 1, 2, 4, 8, 12 and 24 hours. For each time point, approximately 500 μL of whole blood was withdrawn from the retro orbital sinus and collected in labeled tubes containing dipotassium EDTA as anticoagulant (20 μL of 200 mM K2 EDTA solution per mL of blood). Plasma was separated by centrifuging the whole blood at about 2500 g for 10 minutes at 4° C. within 1 h of sample collection. Separated plasma was stored below minus 50° C. until bioanalysis.
An LC-MS/MS method was developed and employed for the quantitation of 1H-indole-3-carbaldehyde quinolin-8-ylhydrazone in the mouse plasma samples. The samples were prepared for analysis following liquid-liquid extraction using amodiaquin as internal standard. The lower limit of quantitation was 1.04 ng/mL.
Pharmacokinetic parameters were calculated using non-compartmental analysis tool of WINNONLIN™ Enterprise software (Version 5.1.1). […]

[1] = male, Swiss Albino, mouse, plasma, iv, 3 mg/kg, mouse, intravenous bolus 3 mg/kg, N = 3, read-out: Mean plasma concentration
[2] = male, Swiss Albino, mouse, plasma, iv, 3 mg/kg, mouse, intravenous bolus 3 mg/kg, individual mice, LLOQ 1.04 ng/mL, read-out: Individual plasma concentration
[3] = male, Swiss Albino, mouse, plasma, oral, 15 mg/kg, mouse, oral solution 15 mg/kg, N = 3, read-out: Mean plasma concentration
[4] = male, Swiss Albino, plasma, mouse, IV 3 mg/kg
[5] = male, Swiss Albino, plasma, mouse, oral solution 15 mg/kg

concentration at 0.5 h (male, Swiss Albino, mouse, plasma, iv, 3 mg/kg, intravenous bolus 3 mg/kg, N = 3): 292 ng/mL | concentration at 0.083 h (male, Swiss Albino, mouse, plasma, iv, 3 mg/kg, mouse plasma, IV 3 mg/kg, 0.083 h sample, read-out: Initial conc. (repeat analysis)): 47.3 ng/mL | concentration at 0.083 h (male, Swiss Albino, mouse, plasma, iv, 3 mg/kg, mouse plasma, IV 3 mg/kg, 0.083 h sample, read-out: Repeated conc. (repeat analysis)): 75.6 ng/mL | concentration at 0.25 h (male, Swiss Albino, mouse, plasma, iv, 3 mg/kg, mouse plasma, IV 3 mg/kg, 0.25 h samples, read-out: Initial conc. (repeat analysis)): 130 ng/mL | concentration at 0.25 h (male, Swiss Albino, mouse, plasma, iv, 3 mg/kg, mouse plasma, IV 3 mg/kg, 0.25 h samples, read-out: Repeated conc. (repeat analysis)): 200 ng/mL | half-life (male, Swiss Albino, mouse, plasma, iv, 3 mg/kg, mouse, IV 3 mg/kg, read-out: T1/2 (converted)): 1.67 h | half-life (male, Swiss Albino, mouse, plasma, iv, 3 mg/kg, mouse, following intravenous administration 3 mg/kg, read-out: Half-life (converted)): ~1.7 h | concentration at 0.083 h (male, Swiss Albino, mouse, plasma, iv, 3 mg/kg, mouse, intravenous bolus 3 mg/kg, 0.083 h, N = 2, read-out: Mean plasma concentration): 1690 ng/mL | concentration at 0.25 h (male, Swiss Albino, mouse, plasma, iv, 3 mg/kg, mouse, intravenous bolus 3 mg/kg, 0.25 h, N = 3, read-out: Mean plasma concentration): 244 ng/mL | concentration at 0.25 h (male, Swiss Albino, mouse, plasma, iv, 3 mg/kg, mouse, intravenous bolus 3 mg/kg, 0.25 h, individual mice, LLOQ 1.04 ng/mL, read-out: Individual plasma concentration): 200 ng/mL | concentration at 1 h [1]: 147 ng/mL | concentration at 1 h [2]: 116 ng/mL | concentration at 2 h [1]: 65.2 ng/mL | concentration at 2 h [2]: 71.9 ng/mL | concentration at 4 h [1]: 35.9 ng/mL | concentration at 4 h [2]: 42.4 ng/mL | concentration at 8 h [1]: 8.95 ng/mL | concentration at 8 h [2]: 10.1 ng/mL | concentration at 12 h [1]: 1.29 ng/mL | concentration at 12 h (male, Swiss Albino, mouse, plasma, iv, 3 mg/kg, mouse, intravenous bolus 3 mg/kg, individual mice, BLQ = below LLOQ 1.04 ng/mL, read-out: Individual plasma concentration): 1.68 ng/mL | bioavailability (male, Swiss Albino, mouse, plasma, oral, 15 mg/kg, mouse, oral 15 mg/kg vs IV 3 mg/kg, read-out: F, absolute oral solution bioavailability): ~26% | concentration at 0.25 h (male, Swiss Albino, mouse, plasma, oral, 15 mg/kg, mouse, oral solution 15 mg/kg, 0.25 h, N = 3, read-out: Mean plasma concentration): 140 ng/mL | concentration at 1 h [3]: 199 ng/mL | concentration at 2 h [3]: 96.5 ng/mL | concentration at 4 h [3]: 146 ng/mL | concentration at 8 h [3]: 75.3 ng/mL | concentration at 8 h (male, Swiss Albino, mouse, plasma, oral, 15 mg/kg, mouse, oral solution 15 mg/kg, individual mice, LLOQ 1.04 ng/mL, read-out: Individual plasma concentration): 76.7 ng/mL | concentration at 12 h [3]: 8.91 ng/mL | concentration at 0.5 h (male, Swiss Albino, mouse, plasma, oral, 15 mg/kg, oral solution 15 mg/kg, N = 3): 148 ng/mL | half-life (male, Swiss Albino, mouse, plasma, po, 15 mg/kg, mouse, oral solution 15 mg/kg, read-out: T1/2 (converted)): 1.98 h | AUC [4]: 913 ng·h/mL | AUC(0-t) [4]: 909 ng·h/mL | Cmax [4]: 1690 ng/mL | clearance [4]: 54.8 mL/min/kg | Tmax (male, Swiss Albino, plasma, mouse, IV 3 mg/kg, first sampling point): 0.083 h | Vd (male, Swiss Albino, plasma, mouse, IV 3 mg/kg, read-out: Vds. (volume of distribution)): 4.28 L/kg | AUC [5]: 1170 ng·h/mL | AUC(0-t) [5]: 1140 ng·h/mL | Cmax [5]: 199 ng/mL | Tmax [5]: 1 h | Accepted conc. (repeat analysis) (mouse plasma, IV 3 mg/kg, 0.083 h sample): 75.62 c ng/mL
Compound: C(=NNc1cccc2cccnc12)c1c[nH]c2ccccc12 [Compound C3, 1H-indole-3-carbaldehyde quinolin-8-ylhydrazone]
